“Also recorded” adds a separate entry of the source.
Columns and labels:
HIV = settings: cited from earlier work
[1] = test system: H3K122Ac (HAT activity of BRD4); test: immunofluorescence staining of H3K122Ac in hSAECs; type: cell-based, human
BRD4 BD1 E151A mutant = BRD4 BD1 E151A mutant (Homo sapiens, UniProt O60885, E151A); test: thermal shift assay; settings: TSA, 5 μM protein
[2] = test system: H3K122Ac (HAT activity of BRD4); test: immunofluorescence staining of H3K122Ac in lung sections of mice; settings: n = 5
[3] = test system: BET BD1 and BD2 bromodomains; settings: SPR; cited from earlier work
[4] = in vivo; cited from earlier work
[5] = cited from earlier work
IL-6 = test: poly; settings: for activity at 10 µM: Homo sapiens, read-out: Residual activity rate, IL-6 (%)
[6] = in vivo PK profiles in rats; settings: rat
[7] = test system: poly(I:C)-induced BRD4-dependent acute airway inflammation; test: murine model of poly; type: in vivo, C57BL/6J mice; settings: mice, 10 mg/kg po
CIG5 = test: poly; settings: Homo sapiens, read-out: Residual activity rate, CIG5 (%)

## O=C(Nc1ccc(C(F)(F)F)cc1)Nc1ccc(S(=O)(=O)N2CCC[C@H]2C(=O)Nc2ccccc2)cc1 [Compound 45, (S)-N-Phenyl-1-((4-(3-(4-(trifluoromethyl)phenyl)ureido)phenyl)-sulfonyl)pyrrolidine-2-carboxamide]
HIV
  effect on HIV: epigenetically suppress HIV

## Cc1sc2c(c1C)C(c1ccc(Cl)cc1)=N[C@@H](CC(=O)OC(C)(C)C)c1nnc(C)n1-2 [Compound 3, reference compound]
[1]
  poly(I:C)-induced H3K122Ac accumulation in hSAECs: blocked
HIV
  effect on latent HIV: activate latent HIV
BRD4 BD1 E151A mutant
  binding to E151A mutant of BRD4 BD1 compared with WT: maintained a similar binding activity
[2]
  poly(I:C)-induced H3K122Ac accumulation in lung tissue of mice: blocked

## COCc1nc2cnc3cc(-c4c(C)noc4C)c(OC[C@H]4CCNC4)cc3c2n1[C@H](C)c1ccccc1 [GSK778]
[3]
  selectivity BET BD1 over BD2: > 130 fold

## COc1cc(OC)c2c(=O)cc(-c3cc(C)c(OC[C@H](O)CN4CCN(C)CC4)c(C)c3)oc2c1 [ZL0516, (R)-2-(4-(2-hydroxy-3-(4-methylpiperazin-1-yl)propoxy)-3,5-dimethylphenyl)-5,7-di-methoxy-4H-chromen-4-one]
[4]
  oral bioavailability F: 35%

## Cc1cc(/N=N/c2ccc(S(=O)(=O)NC3CCCC3)cc2)c(N)cc1O [Compound 7]
[5]
  oral bioavailability: 0.5%
[5]; oral dose of 20 mg/kg
  AUC0–t: 104 ng·h/mL
  Cmax: 36 ng/mL

## CC(=O)Nc1c(F)cc(C(=O)N[C@H]2CC[C@H](O)CC2)cc1O[C@@H](C)c1ccccc1 [GSK046]
[3]
  selectivity BET BD2 over BD1: > 300 fold

## O=C(Nc1ccc(C(F)(F)F)cc1)Nc1ccc(S(=O)(=O)N2CCC[C@H]2CO)cc1 [Compound 50, (S)-1-(4-((2-(Hydroxymethyl)pyrrolidin-1-yl)sulfonyl)phenyl)-3-(4 (trifluoromethyl)phenyl)urea]
IL-6
  activity at 10 µM: 1.71 ± 0.13%

## O=C(Nc1ccc(C(F)(F)F)cc1)Nc1ccc(S(=O)(=O)N2CCC[C@H]2CN2CCC(O)CC2)cc1 [Compound 53, (S)-1-(4-((2-((4-Hydroxypiperidin-1-yl)methyl)pyrrolidin-1-yl)-sulfonyl)phenyl)-3-(4-(trifluoromethyl)phenyl)urea]
[1]
  poly(I:C)-induced H3K122Ac accumulation in hSAECs: significantly blocked
[2]
  poly(I:C)-induced H3K122Ac accumulation in lung tissue of mice: significantly blocked
IL-6; ratio of IC50 values
  fold more potent than compound 1, IL-6: 15.9 fold
  fold more potent than compound 3, IL-6: 4.8 fold

## O=C(Nc1ccc(C(F)(F)F)cc1)Nc1ccc(S(=O)(=O)N2CCC[C@H]2CN2CCOCC2)cc1 [Compound 52, (S)-1-(4-((2-(Morpholinomethyl)pyrrolidin-1-yl)sulfonyl)phenyl)-3-(4-(trifluoromethyl)phenyl)urea]
[6]
  improvement of oral bioavailability compared to compound 7: approximately 30 fold
[7]
  poly(I:C)-induced BRD4-dependent acute airway inflammation, overall: more efficacious
  poly(I:C)-induced neutrophilic inflammation around small- and medium-sized airways (histology): completely inhibited
[7]; n = 5, 10 mg/kg
  inflammatory cytokines (IL-6, KC, MCP-1, RANTES) in BALF: significantly attenuated; also recorded: blocked
  inflammatory gene expression (IL-6, KC, ISG54, CIG5) in lung tissues: significantly attenuated; also recorded: blocked
  total cells and neutrophils in BALF: significantly attenuated; also recorded: blocked
[1]
  poly(I:C)-induced H3K122Ac accumulation in hSAECs: significantly blocked
BRD4 BD1 E151A mutant
  binding to E151A mutant of BRD4 BD1 compared with WT: complete loss of its binding affinity
[2]
  poly(I:C)-induced H3K122Ac accumulation in lung tissue of mice: significantly blocked
CIG5
  activity at 10 µM: 0.34 ± 0.025%
IL-6
  activity at 10 µM: 0.35 ± 0.03%

Source: paper PMC8989062 (Journal of medicinal chemistry, 2022)
